Assay results taken from US20170174633A1 (RESEARCH TRIANGLE INSTITUTE, priority 2014, published 2017).
Where “and” joins values, the source holds several entries; their conditions need not be identical. Equal entries are not always repeated. Where two headings read alike, the source gives them in different places.

Tests used:
rNTS1 receptor [1] = target: T1, rNTS1 receptor (Rattus norvegicus, UniProt P20789); assay: 125I-NT competitive binding assay, whole CHO-kl cells over-expressing rNTS1; details: competition with 125I-NT, read-out: NTS1 Ki
T1 construct: expressed in transfected cells
Experimental: (§1) The binding affinities of the test compounds for the rNTS1 and rNTS2 receptors listed in Tables 1 through 4 were determined using previously reported competitive binding assays^49. The NTS1 and 2 receptors were labeled using ^125I-NT. The cells used in the binding assay were CHO-kl cells (American Type Culture Collection) engineered to over-express either the rNTS1 or rNTS2 receptor. Measures of functional agonism and antagonism were obtained by measuring changes in intensity of a calcium-sensitive fluorescent dye as an indirect measure of changes in internal calcium concentrations. These measurements were performed using a FLIPR Tetra (NTS2) or a FlexStation II plate reader for NTS1 (Molecular Devices) and were analyzed using GraphPad Prism software. Antagonism was measured as inhibition of NT-induced calcium release (NTS1) or inhibition of SR142948 (5b)-induced calcium release (NTS2).
Briefly, cells were plated at 100,000 cells/well in 24-well plates in complete DMEM/F12 medium supplemented with 10% fetal bovine serum, 100 units of penicillin/mL, 100 μg of streptomycin/mL, 0.1 mg/mL of normocin, and 250 μg/mL geneticin. Cells were incubated at 37° C. with 5% CO2 and 95% humidity for 48 hrs. Cells were then equilibrated for 10 minutes in Earle's buffer (130 mM NaCl, 5 mM KCl, 1.8 mM CaCl2, 0.8 mM MgCl2, and 20 mM HEPES, pH 7.4) supplemented with 0.1% BSA and 0.1% glucose, and then incubated with or without 10 nM test compound in 0.1 nM ^125I-NT at 37° C. for 30 min. Cells were washed twice in Earle's buffer, extracted in 1 ml 0.1N NaOH and counted in a Packard Cobra II Gamma Counter for 1 minute.
(§2) To determine EC50, IC50, and Ke values, data were fit to a three-parameter logistic equation using GraphPad Prism software. Ki values for radioligand binding assays were determined from ICso values using the equation of Cheng and Prusoff. All data are from at least three independent experiments run in duplicate wells.

rNTS2 receptor [2] = target: T2, rNTS2 receptor (Rattus norvegicus, UniProt Q63384); assay: 125I-NT competitive binding assay, whole CHO-kl cells over-expressing rNTS2; details: for Ki: competition with 125I-NT, ± SEM, read-out: 125I-NT Binding NTS2 Ki; for NTS2/NTS1 selectivity ratio: ratio of 125I-NT binding Ki at NTS1 and NTS2; for selectivity for NTS2 (versus NTS1): relative binding affinities at NTS1 and NTS2
T2 construct: expressed in transfected cells
T2 sequence (Q63384 1-416): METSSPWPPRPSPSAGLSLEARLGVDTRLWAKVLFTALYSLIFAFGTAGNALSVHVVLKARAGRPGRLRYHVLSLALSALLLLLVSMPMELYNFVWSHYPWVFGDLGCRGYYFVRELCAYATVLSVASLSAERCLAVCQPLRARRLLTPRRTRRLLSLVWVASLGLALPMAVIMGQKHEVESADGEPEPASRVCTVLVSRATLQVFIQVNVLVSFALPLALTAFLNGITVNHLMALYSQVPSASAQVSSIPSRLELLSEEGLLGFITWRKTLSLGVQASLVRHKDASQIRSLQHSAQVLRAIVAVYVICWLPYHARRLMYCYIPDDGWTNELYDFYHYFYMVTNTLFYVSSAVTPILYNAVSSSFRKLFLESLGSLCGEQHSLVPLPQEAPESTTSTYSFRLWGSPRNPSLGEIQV
Experimental: as §1, with “The NTS1 and 2 receptors were labeled using ^125I-NT.” left out, “software.” for “software. Antagonism was measured as inhibition of NT-induced calcium release (NTS1) or inhibition of SR142948 (5b)-induced calcium release (NTS2).”
Briefly, cells were plated at 100,000 cells/well in 24-well plates in complete DMEM/F12 medium supplemented with 10% fetal bovine serum, 100 units of penicillin/mL, 100 μg of streptomycin/mL, 0.1 mg/mL of normocin, and 250 μg/mL geneticin. Cells were incubated at 37° C. with 5% CO2 and 95% humidity for 48 hrs. […] Cells were washed twice in Earle's buffer, extracted in 1 ml 0.1N NaOH and counted in a Packard Cobra II Gamma Counter for 1 minute.
as §2

rNTS2 receptor [3] = target: T2, rNTS2 receptor; assay: Calcium mobilization assay for NTS2 receptor (FLIPR Tetra); type: cell-based; details: FLIPR assay, ± SEM; for NTS2 Emax % of 5b: calcium release relative to 5b; for EC50: compound induced calcium release, CHO-kl-rNTS2 cells
Experimental: as §1, with “The NTS1 and 2 receptors were labeled using ^125I-NT.” left out, “software.” for “software. Antagonism was measured as inhibition of NT-induced calcium release (NTS1) or inhibition of SR142948 (5b)-induced calcium release (NTS2).”
CHO-kl-rNTS2 cells were maintained in DMEM/F12 supplemented with 10% FBS, pen/strep, 100 μg/ml normocin, and 400 μg/ml geneticin. For calcium mobilization assays, cells were plated at 25,000 cells/well in black, clear-bottom 96-well plates 24 hrs before the assay and incubated at 37° C., 5% CO2. 100 μl reconstituted Calcium 5 dye (Molecular Devices, diluted 1:20 in assay buffer (1×HBSS, 20 mM HEPES, 2.5 mM Probenicid, pH 7.4)) was added per well and plates were incubated for 45 min at 37° C., 5% CO2. […] Full-log serial dilutions of the test compounds were made at 10× the desired final concentration in 1% DMSO assay buffer and warmed to 37° C. After the pre-treatment incubation, fluorescence intensity was measured on a FLIPR Tetra fluorometric imaging plate reader (Molecular Devices). Relative Fluorescence Units (RFUs) were measured every second for 100 seconds (14 readings before compound addition to establish baseline fluorescence, 85 after) Exposure time 0.53 s, Gain=2000, Excitation intensity=30%, Gate open=10%. For antagonist assays, 1/10 volume of 10×concentration of the test compound dilutions in 10% DMSO in assay buffer was added to cells in lieu of the 10% DMSO only in assay buffer for the pre-treatment.
as §2

rNTS1 receptor [4] = target: T1, rNTS1 receptor; assay: Calcium mobilization assay for NTS1 receptor (FLIPR assay, FlexStation II); type: cell-based; details: for Kb: antagonism of NT induced calcium release, ± SEM, read-out: NTS1 Ke
Experimental: as §1, with “The NTS1 and 2 receptors were labeled using ^125I-NT.” left out, “software.” for “software. Antagonism was measured as inhibition of NT-induced calcium release (NTS1) or inhibition of SR142948 (5b)-induced calcium release (NTS2).”
CHO-kl-rNTS1 cells were maintained in DMEM/F12 medium supplemented with 10% fetal bovine serum (Gibco), 100 U/ml penicillin/100 ug/ml streptomycin, 100 ug/ml normocin (Invivogen), and 250 ug/ml geneticin. For calcium mobilization assays, cells were plated at 30,000 cells/well in black, clear-bottom 96-well plates 24 hrs before the assay and incubated at 37° C., 5% CO2. Prior to the assay, Calcium 5 dye (Molecular Devices) was reconstituted according to manufacturer instructions. The reconstituted dye was diluted 1:40 in assay buffer (lx HBSS, 20 mM HEPES, and 2.5 mM Probenicid (Sigma), pH 7.4). Growth media was removed and 200 ul of this diluted dye was added to each well. Plates were incubated for 45 min at 37° C., 5% CO2 after dye addition. […] Full-log serial dilutions of the test compounds were made at 10× the desired final concentration in 1% DMSO assay buffer and warmed to 37° C. After the pre-treatment incubation, fluorescence intensity was measured on a FlexStation II fluorometric imaging plate reader (Molecular Devices). Relative fluorescence units (RFU) were measured before (20 readings) and after (40 readings) the agonist compound addition for a total 60 second read time (Excitation=485 nm, Emission=525 nm, cutoff=515 nm). For antagonist assays, cells were treated with Calcium dye for 45 min at 37° C., 5% CO2 as with the agonist assays. Then the test antagonist compounds were added in 1% DMSO in assay buffer and the plate was incubated for 15 min at 37° C., 5% CO2.
as §2

NTS2 versus NTS1 = details: literature report; cited from earlier work
[5] = literature report; cited from earlier work

T1 sequence (P20789 whole entry): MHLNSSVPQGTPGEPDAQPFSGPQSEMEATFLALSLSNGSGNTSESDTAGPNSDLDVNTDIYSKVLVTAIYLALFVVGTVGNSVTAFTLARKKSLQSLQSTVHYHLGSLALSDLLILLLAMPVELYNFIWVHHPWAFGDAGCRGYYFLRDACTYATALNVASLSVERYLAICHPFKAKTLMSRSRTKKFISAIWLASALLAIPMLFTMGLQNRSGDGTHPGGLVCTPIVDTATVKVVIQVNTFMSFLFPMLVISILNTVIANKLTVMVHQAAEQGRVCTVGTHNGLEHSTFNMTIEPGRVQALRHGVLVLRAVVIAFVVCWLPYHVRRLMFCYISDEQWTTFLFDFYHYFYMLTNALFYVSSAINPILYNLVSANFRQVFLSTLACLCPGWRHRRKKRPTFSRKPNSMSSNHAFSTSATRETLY

| Compound | Ki (rNTS2 receptor [2]) [nM] | NTS2 Emax % of 5b (rNTS2 receptor [3]) | EC50 (rNTS2 receptor [3]) [nM] | Kb (rNTS1 receptor [4]) [nM] | further results |
| --- | --- | --- | --- | --- | --- |
| COc1ccccc1-c1cc(C(=O)NC2(C(=O)O)CCCCC2)nn1-c1ccc(F)cc1 [7b, 1-({[1-(4-Fluorophenyl)-5-(2-methoxyphenyl)-1H-pyrazol-3-yl]carbonyl}amino)cyclo-hexane carboxylic Acid] | 153 ± 10 | 7 ± 2 % of 5b | 12 ± 6 |  | Ki (rNTS1 receptor [1]; bound given in uM): > 25 µM; NTS2/NTS1 selectivity ratio (rNTS2 receptor [2]): 161; selectivity for NTS2 (versus NTS1) (rNTS2 receptor [2]): 161 fold |
| COc1cccc(OC)c1-c1cc(C(=O)NC2(C(=O)O)CCCCC2)nn1-c1cccc2ccccc12 [26b, 1-({[5-(2,6-Dimethoxyphenyl)-1-naphthalen-1-yl-1H-pyrazol-3-yl]carbonyl}amino)cyclohexane-carboxylic Acid] | 116 ± 39 | 35 % of 5b and 35 ± 1 % of 5b | 18 ± 1.6 | 230 ± 79 |  |
| COc1ccccc1-c1cc(C(=O)NC2(C(=O)O)CCCCC2)nn1-c1cccc2ccccc12 [27b, 1-({[5-(2-Methoxyphenyl)-1-naphthalen-1-yl-1H-pyrazol-3-yl]carbonyl}amino)cyclohexane-carboxylic Acid] | 694 ± 178 | 18 % of 5b and 18 ± 2 % of 5b | 108 ± 8 | 7380 ± 1130 |  |
| COc1cccc(OC)c1-c1cc(C(=O)N[C@H](C(=O)O)C2CCCCC2)nn1-c1ccc(F)cc1 [28b, (2S)-Cyclohexyl({[5-(2,6-dimethoxyphenyl)-1-(4-fluorophenyl)-1H-pyrazol-3-yl]carbonyl}amino)ethanoic Acid] | 622 ± 245 | 22 ± 5 % of 5b | 271 ± 24 | 3340 ± 549 |  |
| COc1cccc(OC)c1-c1cc(C(=O)NC2(C(=O)O)CCCCC2)nn1-c1ccc(F)cc1 [29b, 1-({[5-(2,6-Dimethoxyphenyl)-1-(4-fluorophenyl)-1H-pyrazol-3-yl]carbonyl}amino)cyclohexane-carboxylic Acid] | 140 ± 29 | 12 ± 0.5 % of 5b | 19 ± 3 |  | Ki (rNTS1 receptor [1]; ± SEM): 3.21 ± 0.879 µM; NTS2/NTS1 selectivity ratio (rNTS2 receptor [2]): 23; selectivity for NTS2 (versus NTS1) (rNTS2 receptor [2]): 23 fold |
| C[C@@H]1CN([C@H]2CC[C@](C#N)(c3ccc(F)cc3)CC2)CC[C@]1(C(=O)O)c1ccccc1 [compound 6, Levocabastine, reference compound] | 33 | 16 % of 5b and 16 ± 3 % of 5b | 28 |  | activity in NTS1 FLIPR assay (rNTS1 receptor [4]; agonist and antagonist mode versus NT): neither agonist nor antagonist activity |
| COc1cccc(OC)c1-c1cc(C(=O)NC2(C(=O)O)C3CC4CC(C3)CC2C4)nn1-c1ccc(F)cc1 (stereo not drawn) [compound 30, 2-({[5-(2,6-Dimethoxyphenyl)-1-(4-fluorophenyl)-1H-pyrazol-3-yl]carbonyl}amino) tricyclo[3.3.1.13,7]decane-2-carboxylic Acid] | 110 ± 29 | 34 % of 5b and 34 ± 5 % of 5b | 68 | 191 ± 47 |  |
| COc1ccccc1-c1cc(C(=O)NC2(C(=O)O)C3CC4CC(C3)CC2C4)nn1-c1ccc(F)cc1 (stereo not drawn) [compound 31, 2-({[1-(4-fluorophenyl)-5-(2-methoxyphenyl)-1H-pyrazol-3-yl]carbonyl}amino)tricyclo[3.3.1.13,7]decane-2-carboxylic acid] | 23 ± 5 | 42 ± 12 % of 5b | 138 ± 55 | 3810 ± 422 | Ki (rNTS1 receptor [1]; ± SEM): 4.33 ± 0.656 µM; NTS2/NTS1 selectivity ratio (rNTS2 receptor [2]): 188 |
| (N^αMe)Arg-Lys-Pro-D-3,1-Nal-tLeu-Leu [compound 3] |  |  |  |  | selectivity for NTS2 (versus NTS1) (NTS2 versus NTS1): > 100 fold |
| (N^αMe)Arg-Lys-Pro-N-homo-Tyr-Ile-Leu [4b] |  |  |  |  | selectivity for NTS2 (versus NTS1) (NTS2 versus NTS1): 22,000 fold; plasma stability [5]: excellent plasma stability |
| Arg-Arg-Pro-N-homo-Tyr-Ile-Leu [4a] |  |  |  |  | selectivity for NTS2 (versus NTS1) (NTS2 versus NTS1): 12,000 fold |
